According to EP4644403A1, “HALOGEN-CONTAINING COMPOUNDS USED FOR CAPPING THE 5' END OF NUCLEIC ACID AND USE THEREOF” (Shenzhen Rhegen Biotechnology Co., Ltd., priority 2023, dated 2024):

Molecular target: T1, T7 RNA polymerase (Escherichia phage T7, UniProt P00573)
T1 construct: purchased
Assay: Capped mRNA synthesis by in vitro transcription with cap analog (product amount, Nanodrop One)
Assay type: biochemical
Conditions: per 1 mL reaction system; in vitro transcription at 37°C, 4 hours; purified mRNA quantified with Nanodrop One
Description: • a) A plasmid was linearized and a DNA template was purified. • b) Capping analogs of the present invention and Comparative Example 1 Trilink CleanCap, cap analogs of Comparative Example 2 and Comparative Example 3 were used to synthesize mRNA by in vitro transcription, respectively. Comparative Example 1 was commercially purchased, and Comparative Example 2 and Comparative Example 3 were obtained according to the method disclosed in WO2022/036858. [drawing 172]
Table 1 In vitro transcription system
c) During the experiment, the above reagents were fully mixed and incubated at 37°C. After 4 hours, deoxyribonuclease (DNase) was added and incubated for 30 minutes to remove the DNA template. After digestion, LiCl solution was added, precooled and centrifuged at 1,6000 rpm for 15 minutes to remove the supernatant. 70% ethanol was added and centrifuged to remove the supernatant again, and then a certain amount of enzyme-free water was added for storage. […] Table 2 amount (mg) of final product obtained per 1 mL of mRNA synthesis reaction system

T1 sequence (P00573 whole entry): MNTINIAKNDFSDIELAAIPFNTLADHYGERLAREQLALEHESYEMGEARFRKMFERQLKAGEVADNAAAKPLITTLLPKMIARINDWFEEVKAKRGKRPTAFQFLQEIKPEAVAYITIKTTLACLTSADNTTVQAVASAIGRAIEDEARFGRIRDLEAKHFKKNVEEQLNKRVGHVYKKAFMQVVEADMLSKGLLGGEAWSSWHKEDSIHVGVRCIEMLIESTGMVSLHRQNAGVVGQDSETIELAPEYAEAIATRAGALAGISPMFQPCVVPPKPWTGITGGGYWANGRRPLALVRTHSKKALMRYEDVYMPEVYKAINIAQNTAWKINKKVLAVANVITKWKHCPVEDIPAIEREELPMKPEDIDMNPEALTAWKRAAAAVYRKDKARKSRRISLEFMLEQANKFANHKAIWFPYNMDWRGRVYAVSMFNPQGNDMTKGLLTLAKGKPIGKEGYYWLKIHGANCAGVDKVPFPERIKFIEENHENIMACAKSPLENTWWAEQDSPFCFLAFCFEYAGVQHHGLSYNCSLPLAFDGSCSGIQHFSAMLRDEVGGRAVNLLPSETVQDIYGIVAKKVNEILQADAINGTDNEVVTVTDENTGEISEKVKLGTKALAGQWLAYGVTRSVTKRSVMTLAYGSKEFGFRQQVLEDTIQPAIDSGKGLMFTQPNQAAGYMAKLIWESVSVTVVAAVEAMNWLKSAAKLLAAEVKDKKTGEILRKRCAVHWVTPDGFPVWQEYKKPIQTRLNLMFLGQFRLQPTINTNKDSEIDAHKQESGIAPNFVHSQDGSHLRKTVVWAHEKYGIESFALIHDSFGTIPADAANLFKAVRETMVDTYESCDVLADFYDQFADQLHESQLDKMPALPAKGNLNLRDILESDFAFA

Structure (SMILES)	Product amount: amount (mg) of final product obtained per 1 mL of mRNA synthesis reaction system [mg]
C[n+]1cn([C@@H]2O[C@H](COP(=O)(O)OP(=O)(O)OP(=O)(O)OC[C@H]3O[C@@H](n4cnc5c(N)ncnc54)[C@H](O)[C@@H]3OP(=O)(O)OC[C@H]3O[C@@H](n4cnc5c(=O)[nH]c(N)nc54)[C@H](F)[C@@H]3O)[C@@H](O)[C@H]2O)c2nc(N)[nH]c(=O)c21 [Compound 8]	4.7
C[n+]1cn([C@@H]2O[C@H](COP(=O)(O)OP(=O)(O)OP(=O)(O)OC[C@H]3O[C@@H](n4ccc(=O)[nH]c4=O)[C@H](F)[C@@H]3OP(=O)(O)OC[C@H]3O[C@@H](n4cnc5c(=O)[nH]c(N)nc54)[C@H](F)[C@@H]3O)[C@@H](O)[C@H]2O)c2nc(N)[nH]c(=O)c21 [Compound 68]	5.8
